Assay results taken from the NIST ThermoML archive (doi:10.1021/acs.jced.6b00178).
± gives the expanded uncertainty stated by the source.

Experiment: xn = mol fraction of the nth substance listed
Conditions: 100 kPa, Liquid; for viscosity: Concentric cylinders viscometry; for mass density: Vibrating tube method

CCCCn1cc[n+](C)c1.F[P-](F)(F)(F)(F)F [1-butyl-3-methylimidazolium hexafluorophosphate] + CCCC[n+]1ccn(C)c1.O=S(=O)([N-]S(=O)(=O)C(F)(F)F)C(F)(F)F
Conditions	mass density, x2 = 0 [kg/m3]	mass density, x2 = 0.25 [kg/m3]	mass density, x2 = 0.5 [kg/m3]	mass density, x2 = 0.748 [kg/m3]	viscosity, x2 = 0 [mPa·s]	viscosity, x2 = 0.25 [mPa·s]	viscosity, x2 = 0.5 [mPa·s]	viscosity, x2 = 0.748 [mPa·s]
283.15 K	1379.9 ± 0.7	1402.5 ± 0.7	1421.1 ± 0.7	1437.4 ± 0.8	794.33 ± 48	360.25 ± 20	221.31 ± 12	148.25 ± 7.7
288.15 K	1376.5 ± 0.7	1398.3 ± 0.7	1417.2 ± 0.7	1433.1 ± 0.7	557.27 ± 33	264.71 ± 14	166.04 ± 8.7	112.57 ± 5.8
293.15 K	1372 ± 0.7	1393.8 ± 0.7	1412.6 ± 0.7	1428.4 ± 0.7	393.86 ± 22	196.39 ± 10	126.16 ± 6.5	87.23 ± 4.4
298.15 K	1367.6 ± 0.7	1389.4 ± 0.7	1408 ± 0.7	1423.7 ± 0.7	285.02 ± 16	148.96 ± 7.8	97.74 ± 5	68.88 ± 3.5
303.15 K	1363.4 ± 0.7	1385 ± 0.7	1403.5 ± 0.7	1419 ± 0.7	210.93 ± 11	115.08 ± 5.9	77.09 ± 3.9	55.3 ± 2.8
308.15 K	1359.2 ± 0.7	1380.7 ± 0.7	1399 ± 0.7	1414.3 ± 0.7	159.46 ± 8.3	90.44 ± 4.6	61.82 ± 3.1	45.08 ± 2.3
313.15 K	1355.1 ± 0.7	1376.4 ± 0.7	1394.5 ± 0.7	1409.7 ± 0.7	122.78 ± 6.3	72.18 ± 3.6	50.31 ± 2.5	37.25 ± 1.9
318.15 K	1351 ± 0.7	1372.1 ± 0.7	1390 ± 0.7	1405.1 ± 0.7	96.28 ± 4.9	58.45 ± 2.9	41.52 ± 2.1	31.17 ± 1.6
323.15 K	1347 ± 0.7	1367.9 ± 0.7	1385.6 ± 0.7	1400.5 ± 0.7	76.72 ± 3.9	47.96 ± 2.4	34.68 ± 1.7	26.38 ± 1.3
328.15 K	1342.9 ± 0.7	1363.6 ± 0.7	1381.2 ± 0.7	1395.9 ± 0.7	62.04 ± 3.1	39.84 ± 2	29.3 ± 1.5	22.56 ± 1.1
333.15 K	1338.9 ± 0.7	1359.4 ± 0.7	1376.7 ± 0.7	1391.3 ± 0.7	50.85 ± 2.6	33.47 ± 1.7	25 ± 1.3	19.47 ± 0.98
338.15 K	1334.9 ± 0.7	1355.2 ± 0.7	1372.3 ± 0.7	1386.8 ± 0.7	42.2 ± 2.1	28.39 ± 1.4	21.53 ± 1.1	16.96 ± 0.85
343.15 K	1330.9 ± 0.7	1351 ± 0.7	1368 ± 0.7	1382.3 ± 0.7	35.43 ± 1.8	24.3 ± 1.2	18.7 ± 0.94	14.88 ± 0.75
348.15 K	1326.9 ± 0.7	1346.9 ± 0.7	1363.6 ± 0.7	1377.9 ± 0.7	30.04 ± 1.5	20.99 ± 1.1	16.38 ± 0.82	13.15 ± 0.66
353.15 K	1323 ± 0.7	1342.7 ± 0.7	1359.3 ± 0.7	1373.4 ± 0.7	25.72 ± 1.3	18.29 ± 0.92	14.44 ± 0.73	11.7 ± 0.59
358.15 K	1319 ± 0.7	1338.6 ± 0.7	1355.1 ± 0.7	1369 ± 0.7	22.22 ± 1.1	16.04 ± 0.81	12.82 ± 0.65	10.47 ± 0.53
363.15 K	1315.2 ± 0.7	1334.6 ± 0.7	1350.8 ± 0.7	1364.6 ± 0.7	19.36 ± 0.97	14.17 ± 0.71	11.46 ± 0.58	9.428 ± 0.47
